Assays:
[1] = system: T. brucei brucei Lister 427 bloodstream forms; assay: Efficacy against T. brucei bloodstream forms, resazurin-based assay; type: cell-based, Trypanosoma brucei brucei; settings: 72 h; for % inhibition T. brucei at 10 µM ± SD: 10 µM compound, T. brucei brucei Lister 427 bloodstream form; for inhibition at 10 µM: Trypanosoma brucei, read-out: % inhibition T. brucei at 10 µM ± SD
[2] = Cytotoxicity on THP-1-derived macrophages, colorimetric MTT assay; type: cell-based; settings: human
LmPTR1 = target: T1, LmPTR1 (Leishmania major, UniProt Q01782); assay: biochemical
T1 sequence (Q01782 1-288): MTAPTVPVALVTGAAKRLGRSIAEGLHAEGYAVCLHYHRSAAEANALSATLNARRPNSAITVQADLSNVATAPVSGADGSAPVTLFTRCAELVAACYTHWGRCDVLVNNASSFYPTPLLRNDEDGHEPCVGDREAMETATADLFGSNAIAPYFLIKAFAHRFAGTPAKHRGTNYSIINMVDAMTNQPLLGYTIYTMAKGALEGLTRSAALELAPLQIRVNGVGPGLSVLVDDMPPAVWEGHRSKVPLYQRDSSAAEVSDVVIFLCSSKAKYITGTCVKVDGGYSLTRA

hDHFR = target: T2, hDHFR (Homo sapiens, UniProt P00374); assay: biochemical; settings: for hDHFR IC50: off-target
T2 sequence (P00374 1-187): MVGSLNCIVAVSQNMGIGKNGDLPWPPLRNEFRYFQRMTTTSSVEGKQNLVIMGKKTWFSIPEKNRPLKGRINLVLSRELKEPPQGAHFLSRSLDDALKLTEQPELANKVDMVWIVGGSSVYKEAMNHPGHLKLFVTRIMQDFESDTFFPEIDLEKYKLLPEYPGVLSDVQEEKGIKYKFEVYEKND

TbDHFR = TbDHFR (Trypanosoma brucei brucei, UniProt Q27783); assay: biochemical
human DHFR (hDHFR) = settings: read-out: Ki hDHFR; cited from earlier work
[3] = target: Leishmania major PTR1 (LmPTR1); settings: read-out: Ki LmPTR1; cited from earlier work
L. major DHFR (LmDHFR) = settings: read-out: Ki LmDHFR; cited from earlier work
LmDHFR = LmDHFR (Leishmania major, UniProt P07382); assay: biochemical
hTS = hTS (Homo sapiens, UniProt P04818); assay: biochemical
hTS, sequence (P04818 whole entry): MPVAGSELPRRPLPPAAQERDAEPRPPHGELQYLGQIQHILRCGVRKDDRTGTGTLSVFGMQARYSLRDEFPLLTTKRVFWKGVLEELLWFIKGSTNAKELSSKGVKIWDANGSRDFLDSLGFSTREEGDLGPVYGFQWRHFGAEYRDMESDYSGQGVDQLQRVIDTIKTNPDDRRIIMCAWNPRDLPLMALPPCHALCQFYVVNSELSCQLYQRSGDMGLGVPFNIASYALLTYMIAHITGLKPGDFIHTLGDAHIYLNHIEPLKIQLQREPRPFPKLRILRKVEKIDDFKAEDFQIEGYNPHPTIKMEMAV

TbDHFR, sequence (Q27783 whole entry): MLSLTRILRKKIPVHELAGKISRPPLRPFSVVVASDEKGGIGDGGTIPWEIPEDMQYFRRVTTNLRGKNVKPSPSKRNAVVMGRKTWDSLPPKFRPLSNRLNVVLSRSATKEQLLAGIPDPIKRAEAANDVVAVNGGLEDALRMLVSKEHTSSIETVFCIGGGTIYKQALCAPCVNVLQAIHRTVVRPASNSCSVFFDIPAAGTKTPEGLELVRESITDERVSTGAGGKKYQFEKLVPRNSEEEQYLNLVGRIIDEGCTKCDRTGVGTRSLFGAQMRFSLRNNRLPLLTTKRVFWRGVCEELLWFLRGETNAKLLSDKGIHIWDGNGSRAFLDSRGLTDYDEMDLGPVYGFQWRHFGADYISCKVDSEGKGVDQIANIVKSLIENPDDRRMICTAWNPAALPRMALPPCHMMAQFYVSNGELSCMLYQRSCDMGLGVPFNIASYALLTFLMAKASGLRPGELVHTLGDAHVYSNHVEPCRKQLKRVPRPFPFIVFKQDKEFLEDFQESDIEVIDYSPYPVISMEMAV
LmDHFR, sequence (P07382 whole entry): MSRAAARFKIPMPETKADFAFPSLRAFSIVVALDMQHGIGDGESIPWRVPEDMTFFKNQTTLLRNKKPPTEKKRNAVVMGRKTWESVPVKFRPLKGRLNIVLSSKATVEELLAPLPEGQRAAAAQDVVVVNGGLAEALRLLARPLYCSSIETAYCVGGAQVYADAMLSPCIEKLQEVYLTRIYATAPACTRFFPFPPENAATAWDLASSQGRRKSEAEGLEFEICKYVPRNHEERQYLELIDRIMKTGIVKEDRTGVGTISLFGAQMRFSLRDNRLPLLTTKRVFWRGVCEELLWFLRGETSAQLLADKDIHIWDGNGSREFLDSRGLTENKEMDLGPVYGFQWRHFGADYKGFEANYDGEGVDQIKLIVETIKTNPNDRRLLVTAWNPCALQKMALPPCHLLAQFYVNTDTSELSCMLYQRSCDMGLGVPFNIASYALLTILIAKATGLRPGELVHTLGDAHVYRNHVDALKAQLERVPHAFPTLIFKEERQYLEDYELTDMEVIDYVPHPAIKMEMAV

COc1ccc(CNC(=O)c2ccc(CNCc3cnc4nc(N)nc(N)c4n3)cc2)cc1 [Compound 4f]
% inhibition T. brucei at 10 µM ± SD [1]: inactive

CCN(Cc1cnc2nc(N)nc(N)c2n1)c1ccc(C(=O)c2ccccc2)cc1 [Compound 5d]
CC50 [2]: 25000 to 50000 nM

Nc1nc(N)c2nc(CNc3ccc(C(=O)NCCc4ccccc4)cc3)cnc2n1 [Compound 4e]
inhibition at 10 µM [1]: 40%

CN(Cc1cnc2nc(N)nc(N)c2n1)c1ccc(C(=O)N2CCCCC2)cc1 [Compound 4c]
IC50 (LmPTR1): 100 nM

Nc1nc(N)c2nc(CNc3cccc4ccccc34)cnc2n1 [Compound 3c]
IC50 (hDHFR): 4000 nM | IC50 (TbDHFR): 500 nM

COC(=O)C1CCN(C(=O)c2ccc(NCc3cnc4nc(N)nc(N)c4n3)cc2)CC1 [Compound 1c, methyl-1-(4-(((2,4-diaminopteridin-6-yl)methyl)amino)benzoyl)piperidine-4-carboxylate]
Ki (human DHFR (hDHFR)): 10000 nM | Ki [3]: 100 nM | Ki (L. major DHFR (LmDHFR)): 4000 nM

COC(=O)C1CCN(C(=O)c2ccc(N(C)Cc3cnc4nc(N)nc(N)c4n3)cc2)CC1 [Compound 1b, methyl-1-(4-(((2,4-diaminopteridin-6-yl)methyl)(methyl)amino)benzoyl)piperidine-4-carboxylate, reference compound]
Ki [3]: 40 nM | IC50 (LmDHFR): 300 nM | IC50 (TbDHFR): 300 nM

CCOC(=O)C1CCN(C(=O)c2ccc(N(CC)Cc3cnc4nc(N)nc(N)c4n3)cc2)CC1 [Compound 5c]
IC50 (LmDHFR): 200 nM

COc1cc(Oc2ccc(CNCc3cnc4nc(N)nc(N)c4n3)cc2)cc(OC)c1OC [Compound 4j]
% inhibition T. brucei at 10 µM ± SD [1]: inactive

NC(=O)C1CCCN1C(=O)Cc1ccc(N(CCCO)Cc2cnc3nc(N)nc(N)c3n2)cc1 (centres unmarked) [Compound 5b]
hDHFR IC50 (hDHFR): inactive | IC50 (hTS): 29000 nM

COc1ccc(Oc2ccc(CNCc3cnc4nc(N)nc(N)c4n3)cc2)cc1 [Compound 4i]
LmDHFR IC50 (LmDHFR): inactive | hDHFR IC50 (hDHFR): inactive | TbDHFR IC50 (TbDHFR): inactive

COC(=O)C1CCN(C(=O)c2ccc(N(Cc3ccccc3)Cc3cnc4nc(N)nc(N)c4n3)cc2)CC1 [Compound 2c]
inhibition at 10 µM [1]: 75% | IC50 (TbDHFR): ~1000 nM

Nc1nc(N)c2nc(C(=O)NCc3ccccc3)cnc2n1 [Compound 3d]
LmDHFR IC50 (LmDHFR): do not show inhibitory activity | TbDHFR IC50 (TbDHFR): do not show inhibitory activity

COc1ccc(Oc2ccc(CN(Cc3ccccc3)Cc3cnc4nc(N)nc(N)c4n3)cc2)cc1 [Compound 5e]
CC50 [2]: 12500 to 25000 nM

Nc1nc(N)c2nc(C(=O)NCc3cccc(C(F)(F)F)c3)cnc2n1 [Compound 3e]
LmDHFR IC50 (LmDHFR): do not show inhibitory activity | TbDHFR IC50 (TbDHFR): do not show inhibitory activity

Nc1nc(N)c2nc(CNCc3ccc(Oc4ccccc4)cc3)cnc2n1 [Compound 4h]
% inhibition T. brucei at 10 µM ± SD [1]: inactive

CCOC(=O)C1CCN(C(=O)c2ccc(N(C)Cc3cnc4nc(N)nc(N)c4n3)cc2)CC1 [Compound 4a]
IC50 (LmDHFR): 100 nM

COc1ccc(Oc2ccc(CN(C)Cc3cnc4nc(N)nc(N)c4n3)cc2)cc1 [Compound 5f]
CC50 [2]: 12500 to 25000 nM
